Test results: ChEMBL document CHEMBL4007390, “Design, synthesis and biological evaluation of indolin-2-one-based derivatives as potent, selective and efficacious inhibitors of FMS-like tyrosine kinase3 (FLT3)” (Eur J Med Chem, 2017)
Activity calls are given as the source filed them. No cut-off for these calls is given here.

System: not listed separately
Assay: Toxicity in Harlan nude mouse xenografted with human MV4-11 cells administered ig qd for 20 days
Settings: in vivo, po

| SMILES | MTD at 480 h |
| --- | --- |
| CCN(CC)CCNC(=O)c1c(C)[nH]c(/C=C2\C(=O)Nc3ccc(F)cc32)c1C [SUNITINIB] | 80 mg/kg/day |

System: not listed separately
Assay: Inhibition of human FLT3 ITD mutant
Settings: not given

| SMILES | IC50 |
| --- | --- |
| CCN(CC)CCNC(=O)c1c(C)[nH]c(/C=C2\C(=O)Nc3ccc(F)cc32)c1C [SUNITINIB] | 1.4 nM |

System: MV4-11
Assay: Antitumor activity against human MV4-11 cells xenografted in Harlan nude mouse assessed as tumor growth inhibition administered ig qd for 20 days
Format: functional
Settings: MV4-11, po, 480 h, read-out: MED

| SMILES | minimal effective dose |
| --- | --- |
| CCN(CC)CCNC(=O)c1c(C)[nH]c(/C=C2\C(=O)Nc3ccc(F)cc32)c1C [SUNITINIB] | 10 mg/kg/day |

System: MV4-11
Assay: Antitumor activity against human MV4-11 cells xenografted in Harlan nude mouse assessed as tumor growth inhibition administered orally measured after 1 week
Format: functional, cell-based
Settings: not given

| SMILES | TGI |
| --- | --- |
| Cc1[nH]c(/C=C2\C(=O)Nc3ccc(F)cc32)c(C)c1NC(=O)C1CCNCC1 | inactive |

System: MV4-11
Assay: Antiproliferative activity against human MV4-11 cells harboring FLT3 ITD mutant after 72 hrs by MTS assay
Format: functional, cell-based
Settings: MV4-11, 72 h

| SMILES | IC50 |
| --- | --- |
| Cc1[nH]c(/C=C2\C(=O)Nc3ccc(F)cc32)c(C)c1NC(=O)CCNC(C)(C)C | 30.3 nM |
| CCCCNCC(=O)Nc1c(C)[nH]c(/C=C2\C(=O)Nc3ccc(F)cc32)c1C | > 200 nM |
| CCCCNCCC(=O)Nc1c(C)[nH]c(/C=C2\C(=O)Nc3ccc(F)cc32)c1C | 73.4 nM |
| CCCNCCC(=O)Nc1c(C)[nH]c(/C=C2\C(=O)Nc3ccc(F)cc32)c1C | 39.4 nM |
| Cc1[nH]c(/C=C2\C(=O)Nc3ccc(F)cc32)c(C)c1NC(=O)CN1CCNCC1 | 17.1 nM |
| Cc1[nH]c(/C=C2\C(=O)Nc3ccc(F)cc32)c(C)c1NC(=O)C1CCNCC1 | 14.7 nM |
| Cc1[nH]c(/C=C2\C(=O)Nc3ccc(F)cc32)c(C)c1NC(=O)CCN1CCCCC1 | 33.7 nM |
| Cc1[nH]c(/C=C2\C(=O)Nc3ccc(F)cc32)c(C)c1NC(=O)CN1CCOCC1 | 66.1 nM |
| Cc1[nH]c(/C=C2\C(=O)Nc3ccc(F)cc32)c(C)c1NC(=O)CNC(C)(C)C | 158 nM |
| CCN(CC)CCNC(=O)c1c(C)[nH]c(/C=C2\C(=O)Nc3ccc(F)cc32)c1C [SUNITINIB] | 38.5 nM |
| Cc1[nH]c(/C=C2\C(=O)Nc3ccc(F)cc32)c(C)c1NC(=O)CNC1CCCCC1 | > 200 nM |
| CCCN(CCC)CC(=O)Nc1c(C)[nH]c(/C=C2\C(=O)Nc3ccc(F)cc32)c1C | > 200 nM |
| Cc1[nH]c(/C=C2\C(=O)Nc3ccc(F)cc32)c(C)c1NC(=O)CN1CCN(C)CC1 | 38.5 nM |
| Cc1[nH]c(/C=C2\C(=O)Nc3ccc(F)cc32)c(C)c1NC(=O)CCN1CCCC1 | 20 nM |
| CCN(CC)CCC(=O)Nc1c(C)[nH]c(/C=C2\C(=O)Nc3ccc(F)cc32)c1C | 36.5 nM |
| Cc1[nH]c(/C=C2\C(=O)Nc3ccc(F)cc32)c(C)c1NC(=O)CNC1CCCC1 | 89.9 nM |
| Cc1[nH]c(/C=C2\C(=O)Nc3ccc(F)cc32)c(C)c1NC(=O)C1CCCCN1 (stereo not drawn) | 35.6 nM |
| CCN(CC)CC(=O)Nc1c(C)[nH]c(/C=C2\C(=O)Nc3ccc(F)cc32)c1C | > 200 nM |

The next lines start with the values.

| IC50 | SMILES |
| --- | --- |
| > 200 nM | Cc1[nH]c(/C=C2\C(=O)Nc3ccc(F)cc32)c(C)c1NC(=O)CN1CCCCC1 |
| 39.2 nM | Cc1[nH]c(/C=C2\C(=O)Nc3ccc(F)cc32)c(C)c1NC(=O)CCN1CCNCC1 |
| 25.7 nM | CCNCCC(=O)Nc1c(C)[nH]c(/C=C2\C(=O)Nc3ccc(F)cc32)c1C |
| 43.8 nM | CCNCC(=O)Nc1c(C)[nH]c(/C=C2\C(=O)Nc3ccc(F)cc32)c1C |
| 41.4 nM | Cc1[nH]c(/C=C2\C(=O)Nc3ccc(F)cc32)c(C)c1NC(=O)[C@@H]1CCCN1 |
| 55 nM | Cc1[nH]c(/C=C2\C(=O)Nc3ccc(F)cc32)c(C)c1NC(=O)CCNC1CCCC1 |
| 74.4 nM | Cc1[nH]c(/C=C2\C(=O)Nc3ccc(F)cc32)c(C)c1NC(=O)CN1CCCC1 |
| 119 nM | Cc1[nH]c(/C=C2\C(=O)Nc3ccc(F)cc32)c(C)c1NC(=O)CCNC1CCCCC1 |
| 67.8 nM | CCCNCC(=O)Nc1c(C)[nH]c(/C=C2\C(=O)Nc3ccc(F)cc32)c1C |
| 60.7 nM | Cc1[nH]c(/C=C2\C(=O)Nc3ccc(F)cc32)c(C)c1NC(=O)CCN1CCOCC1 |
| 24.1 nM | Cc1[nH]c(/C=C2\C(=O)Nc3ccc(F)cc32)c(C)c1NC(=O)C1CCCNC1 (stereo not drawn) |
| 142 nM | CCCN(CCC)CCC(=O)Nc1c(C)[nH]c(/C=C2\C(=O)Nc3ccc(F)cc32)c1C |
| 27.1 nM | Cc1[nH]c(/C=C2\C(=O)Nc3ccc(F)cc32)c(C)c1NC(=O)CCN(C)C |
| 47.5 nM | Cc1[nH]c(/C=C2\C(=O)Nc3ccc(F)cc32)c(C)c1NC(=O)CN(C)C |
| 45.3 nM | Cc1[nH]c(/C=C2\C(=O)Nc3ccc(F)cc32)c(C)c1NC(=O)CCN1CCN(C)CC1 |

System: MV4-11
Assay: Antitumor activity against human MV4-11 cells xenografted in Harlan nude mouse assessed as tumor growth inhibition at 10 mg/kg, ig qd for 20 days relative to control
Format: functional
Settings: MV4-11, po, 480 h, read-out: TGI

| SMILES | inhibition in vivo at 10 mg/kg |
| --- | --- |
| CCN(CC)CCNC(=O)c1c(C)[nH]c(/C=C2\C(=O)Nc3ccc(F)cc32)c1C [SUNITINIB] | 81% |
